This note sets out measurements from patent US12084420B2, “Indoline compounds for inhibiting KIF18A” (Volastra Therapeutics, Inc., priority 2021, dated 2024).

The term IC50 denotes the concentration that inhibits the measured activity by half. The term koff denotes the rate constant with which the complex falls apart.

Read-outs that look alike come from different tables or passages of the source.

One experiment concerns HCC15 cells. As to the kind of experiment: Cell viability of KIF18a-sensitive cell lines, HCC15 (Cell Titre-Glo, 7 days). It is filed as cell-based. The settings on record: HCC15, 168 h, read-out: HCC-15 IC50. On the procedure:
Cell Viability of KIF18a-Sensitive Cell Lines
Cell lines were seeded as follows 24 hours before compound treatment: HCC15 (Korean Cell Line Bank) 600 cell/well, 95 μL of RPMI-1640 media supplemented with 100 units/mL penicillin, 100 units/mL streptomycin and 10% FBS; NIH:OVCAR-3 (ATCC), 1000 cell/well, 95 μL of RPMI-1640 media supplemented with 100 units/mL penicillin, 100 units/mL streptomycin, 0.01 mg/mL bovine insulin, and 20% FBS; JIMT-1 (Addexbio) 1000 cell/well, 95 μL of DMEM media supplemented with 100 units/mL penicillin, 100 units/mL streptomycin, and 10% FBS.
Test compounds were added to cells in a 20× dilution scheme by adding 5 μL of serially diluted compound to the plate, and the treated cells were incubated for an additional 7 days in a 37° C., 5% CO2 incubator. DMSO was used as the negative control (0% effect), and wells omitting cells were used as the positive control (100% effect). The cells were incubated for seven days, and cell viability determined via the Promega Cell Titre-Glo® Assay kit. Luminescence units were converted to ATP concentrations via an ATP standard curve (10 point, 2-fold dilution from 5 uM). % Inhibition was calculated for each well as: ([max−min]−[test−min])/[max−min]. IC50 values were calculated from concentration vs. % Inhibition data via a four-parameter variable slope model.

A further experiment deals with hKIF18A (1-374) (Homo sapiens (Human), UniProt Q8NI77). The experiment can be described thus: Inhibition of KIF18A microtubule-dependent ATPase activity (ADP-Glo). (ADP-Glo turns the ADP formed in a reaction into a luminescent signal.)
Sequence of hKIF18A (1-374) (Q8NI77 whole entry, looked up): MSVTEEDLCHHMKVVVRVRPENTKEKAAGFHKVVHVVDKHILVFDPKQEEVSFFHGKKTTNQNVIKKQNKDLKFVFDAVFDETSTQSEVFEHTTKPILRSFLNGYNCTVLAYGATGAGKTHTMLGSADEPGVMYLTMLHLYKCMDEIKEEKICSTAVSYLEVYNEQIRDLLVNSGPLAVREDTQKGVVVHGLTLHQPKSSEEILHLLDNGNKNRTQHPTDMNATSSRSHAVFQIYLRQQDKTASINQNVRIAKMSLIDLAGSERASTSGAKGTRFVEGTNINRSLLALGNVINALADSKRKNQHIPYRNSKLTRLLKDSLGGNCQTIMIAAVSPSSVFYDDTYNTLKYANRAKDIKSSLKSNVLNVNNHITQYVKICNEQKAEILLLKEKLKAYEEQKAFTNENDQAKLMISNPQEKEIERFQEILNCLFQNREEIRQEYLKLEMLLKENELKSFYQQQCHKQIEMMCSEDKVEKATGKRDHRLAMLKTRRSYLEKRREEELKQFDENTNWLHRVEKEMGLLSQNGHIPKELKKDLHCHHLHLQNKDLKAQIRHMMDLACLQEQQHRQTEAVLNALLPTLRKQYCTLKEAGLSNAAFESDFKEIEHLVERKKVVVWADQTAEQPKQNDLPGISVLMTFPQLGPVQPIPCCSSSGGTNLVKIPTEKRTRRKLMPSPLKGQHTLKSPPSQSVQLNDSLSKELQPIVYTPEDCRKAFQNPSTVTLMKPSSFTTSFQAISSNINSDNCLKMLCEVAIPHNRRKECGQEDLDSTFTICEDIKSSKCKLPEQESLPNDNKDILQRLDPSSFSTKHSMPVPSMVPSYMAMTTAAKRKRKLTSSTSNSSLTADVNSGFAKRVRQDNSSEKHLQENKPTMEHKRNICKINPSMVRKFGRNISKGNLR
Sequence of hKIF18A (1-374) (Q2XVP4 whole entry partner, looked up): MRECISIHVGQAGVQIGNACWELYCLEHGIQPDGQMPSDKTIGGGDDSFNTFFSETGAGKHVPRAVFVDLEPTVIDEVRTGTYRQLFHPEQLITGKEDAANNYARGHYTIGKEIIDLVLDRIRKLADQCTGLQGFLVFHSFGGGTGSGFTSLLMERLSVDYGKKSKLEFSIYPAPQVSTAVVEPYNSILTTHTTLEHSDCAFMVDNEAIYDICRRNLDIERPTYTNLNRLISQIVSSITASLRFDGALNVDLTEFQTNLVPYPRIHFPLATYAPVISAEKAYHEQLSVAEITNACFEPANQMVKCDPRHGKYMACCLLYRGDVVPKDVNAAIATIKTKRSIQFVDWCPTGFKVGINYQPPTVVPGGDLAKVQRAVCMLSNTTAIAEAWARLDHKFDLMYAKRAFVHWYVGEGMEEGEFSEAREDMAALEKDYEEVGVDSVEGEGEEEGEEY
Sequence of hKIF18A (1-374) (P02554 whole entry partner, looked up): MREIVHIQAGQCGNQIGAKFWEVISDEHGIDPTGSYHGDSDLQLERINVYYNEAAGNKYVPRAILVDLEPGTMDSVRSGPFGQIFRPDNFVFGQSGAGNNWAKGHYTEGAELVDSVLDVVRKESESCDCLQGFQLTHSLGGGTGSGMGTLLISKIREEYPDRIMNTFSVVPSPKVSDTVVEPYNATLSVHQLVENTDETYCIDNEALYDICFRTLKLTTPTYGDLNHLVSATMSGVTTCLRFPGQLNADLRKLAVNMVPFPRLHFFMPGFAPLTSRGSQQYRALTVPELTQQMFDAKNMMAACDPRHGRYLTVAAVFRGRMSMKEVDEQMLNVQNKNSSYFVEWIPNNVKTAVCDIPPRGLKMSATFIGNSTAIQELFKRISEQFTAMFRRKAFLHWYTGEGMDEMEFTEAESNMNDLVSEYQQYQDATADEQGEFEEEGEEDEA
In experiment [1] the target is KIF18a-Microtubule Complex (Homo sapiens (Human), UniProt Q8NI77). As to the kind of experiment: Binding kinetics to KIF18a-microtubule complex (global progress curve analysis). The settings on record: for kon (on-rate from binding kinetics assay) / koff (off-rate from binding kinetics assay): global progress curve analysis; for Ki: read-out: KI (determined from binding kinetic assay koff/kon), koff/kon; for koff: read-out: koff (off-rate from binding kinetics assay). On the procedure:
Binding Kinetics to KIF18a-Microtubule Complex
Compound binding kinetics parameters (kon and koff) were determined by the method of global progress curve analysis (GPCA). […] ADP product levels were determined by the Promega® ADP-Glo assay. The time/dose-dependent progress curves were then globally fit to a Michaelis-Menten kinetics model with 1-step slow binding inhibition to derive both on-rate kon and off-rate koff values (Zhang, R., Wong, K. (2017): “High performance enzyme kinetics of turnover, activation and inhibition for translational drug discovery”, Expert Opinion on Drug Discovery, 2017 January; 12(1):17-37. doi: 10.1080/17460441.2017.1245721).

Setting [2] is: HCC-15 cells, 7 days, Cell Titre-Glo.
Setting [3] is: KIF18A microtubule-dependent ATPase activity, biochemical assay.

Sequence of KIF18a-Microtubule Complex (Q8NI77 whole entry, looked up): as the sequence (Q8NI77 whole entry, looked up) above
Sequence of KIF18a-Microtubule Complex (Q2XVP4 whole entry partner, looked up): as the sequence (Q2XVP4 whole entry partner, looked up) above
Sequence of KIF18a-Microtubule Complex (P02554 whole entry partner, looked up): as the sequence (P02554 whole entry partner, looked up) above

As for `CS(=O)(=O)Nc1ccc2c(c1)C1(CCC3(CC3)CC1)CN2C(=O)c1cccc(S(=O)(=O)NC2CC=CC2)c1` [Compound 172, N-(cyclopent-3-en-1-yl)-3-(5″- (methylsulfonamido)dispiro[cyclopropane-1,1′-cyclohexane-4′,3″-indoline]-1″-carbonyl)benzenesulfonamide], the IC50 in the experiment on HCC15 cells (setting [2]) stood at 32 nM; against hKIF18A (1-374) (setting [3]) it was 5.5 nM.
With `CC1CCC2(CC1)CN(C(=O)c1cccc(S(=O)(=O)NC(C)(C)C)c1)c1ccc(NS(C)(=O)=O)cc12` (centres unmarked) [Compound 140, N-(tert-butyl)-3-(4-methyl-5′-(methylsulfonamido)spiro[cyclohexane-1,3′-indoline]-1′-carbonyl)benzenesulfonamide], the figures for the IC50 with HCC15 cells (setting [2]) and against hKIF18A (1-374) (setting [3]) were 38 nM and 13 nM, respectively.
On the same counts, the results for `CS(=O)(=O)Nc1ccc2c(c1)C1(CCC3(CC3)CC1)CN2C(=O)c1cccc(S(=O)(=O)N2CC3(CCO3)C2)c1` [Compound 153, N-(1″-(3-((1-oxa-6-azaspiro[3.3]heptan-6-yl)sulfonyl)benzoyl)dispiro[cyclopropane-1,1′-cyclohexane-4′,3″-indolin]-5″- yl)methanesulfonamide] are 44 nM and 18 nM.
On to `CS(=O)(=O)Nc1ccc2c(c1)C1(CCC3(CC3)CC1)CN2C(=O)c1cccc(S(=O)(=O)N2CC[C@@H](F)C2)c1` [(R)-Compound 239, (R)-N-(1″-(3-((3-fluoropyrrolidin-1-yl)sulfonyl)benzoyl)dispiro[cyclopropane-1,1′-cyclohexane-4′,3″-indolin]-5″- yl)methanesulfonamide], for which, in experiment [1], the “kon (on-rate from binding kinetics assay)” value (shortened to “kon”) worked out at 16700 M⁻¹ s⁻¹, the “disc. t1/2 (dissociation half-life ln(2)/koff)” value worked out at 8.1 h, the Ki was determined as 1.4 nM and the koff was 2.39e-05 s⁻¹. The same molecule displayed an IC50 against hKIF18A (1-374) (setting [3]) of 9.3 nM.
As for `CC(C)(C)NS(=O)(=O)c1cccc(C(=O)N2CC3(CCCCC3)c3cc(NS(C)(=O)=O)ccc32)c1` [Compound 26, N-(tert-butyl)-3-(5′-(methylsulfonamido)spiro[cyclohexane-1,3′-indoline]-1′-carbonyl)benzenesulfonamide], the IC50 came out at 69 nM with HCC15 cells (setting [2]) and 67 nM against hKIF18A (1-374) (setting [3]).
With `O=C(c1cccc(S(=O)(=O)N2CCC(F)(F)CC2)c1)N1CC2(CCC3(CC3)CC2)c2ccccc21` [Compound 4, (3-((4,4-difluoropiperidin-1-yl)sulfonyl)phenyl)(dispiro[cyclopropane-1,1′-cyclohexane-4′,3″-indolin]-1″- yl)methanone], the half-maximal inhibitory concentration (IC50) with HCC15 cells (setting [2]) stood at 2100 nM; at hKIF18A (1-374) (setting [3]), 360 nM.
As to `CS(=O)(=O)Nc1ccc2c(c1)C1(CCC3(CC3)CC1)CN2C(=O)c1cccc(S(=O)(=O)N2CCCC2)c1` [Compound 21, N-(1″-(3-(pyrrolidin-1-ylsulfonyl)benzoyl)dispiro[cyclopropane-1,1′-cyclohexane-4′,3″-indolin]-5″- yl)methanesulfonamide], the results for the IC50 with HCC15 cells (setting [2]) and against hKIF18A (1-374) (setting [3]) were 55 nM and 19 nM, respectively.
`CS(=O)(=O)Nc1ccc2c(c1)C1(CCC3(CC3)CC1)CN2C(=O)c1cccc(S(=O)(=O)N2CC3C(C2)C3(F)F)c1` (centres unmarked) [Compound 237, N-(1″-(3-((6,6-difluoro-3-azabicyclo[3.1.0]hexan-3-yl)sulfonyl)benzoyl)dispiro[cyclopropane-1,1′-cyclohexane-4′,3″-indolin]-5″- yl)methanesulfonamide]: in experiment [1], the “kon” value is 22800 M⁻¹ s⁻¹, the “disc. t1/2 (dissociation half-life ln(2)/koff)” value amounted to 19 h, the Ki came out at 0.44 nM and the koff is 1e-05 s⁻¹. The same molecule had an IC50 against hKIF18A (1-374) (setting [3]) of 11 nM.
Turning to `O=C(c1cccc(S(=O)(=O)N2CCC(F)(F)CC2)c1)N1CC2(CCCC2)c2cc(NS(=O)(=O)CCO)ccc21` [Compound 27, N-(1′-(3-((4,4-difluoropiperidin-1-yl)sulfonyl)benzoyl)spiro[cyclopentane-1,3′-indolin]-5′-yl)-2-hydroxyethane-1-sulfonamide], the IC50 in the experiment with HCC15 cells stood at 140 nM.
Regarding `CS(=O)(=O)Nc1ccc2c(c1)C1(CCC3(CC3)CC1)CN2C(=O)c1cccc(S(=O)(=O)N2CCC(F)(F)CC2)c1` [Compound 28, N-(1″-(3-((4,4-difluoropiperidin-1-yl)sulfonyl)benzoyl)dispiro[cyclopropane-1,1′-cyclohexane-4′,3″-indolin]-5″-yl)methanesulfonamide], the IC50 came to 24 nM in the experiment on HCC15 cells (setting [2]) and 10 nM on hKIF18A (1-374) (setting [3]).
Turning to `CC1CCC2(CC1)CN(C(=O)c1cccc(S(=O)(=O)N3CCC(F)(F)CC3)c1)c1ccc(NS(C)(=O)=O)cc12` (centres unmarked) [Compound 24, N-(1′-(3-((4,4-difluoropiperidin-1-yl)sulfonyl)benzoyl)-4-methylspiro[cyclohexane-1,3′-indolin]-5′-yl)methanesulfonamide], the IC50 in the experiment with HCC15 cells (setting [2]) is 23 nM; against hKIF18A (1-374) it was 10 nM.
With `CCS(=O)(=O)Nc1ccc2c(c1)[C@]1(CC[C@H](C(F)F)CC1)CN2C(=O)c1cccc(S(=O)(=O)NC(C)(C)C)c1` [Compound 333b], in experiment [1], the “koff (off-rate from binding kinetics assay)” value was 3.06e-06 s⁻¹, the “kon” value was determined as 3890 M⁻¹ s⁻¹, the “disc. t1/2 (dissociation half-life ln(2)/koff)” value amounted to 63 h and the Ki amounted to 0.77 nM. This molecule showed an IC50 against hKIF18A (1-374) (setting [3]) of 33 nM.
Turning to `CC(C)(C)NS(=O)(=O)c1cccc(C(=O)N2CC3(CCC(F)(F)CC3)c3cc(NS(C)(=O)=O)ccc32)c1` [Compound 144, N-(tert-butyl)-3-(4,4-difluoro-5′-(methylsulfonamido)spiro[cyclohexane-1,3′-indoline]-1′-carbonyl)benzenesulfonamide], in experiment [1], the “kon” value turned out to be 4170 M⁻¹ s⁻¹, the “disc. t1/2 (dissociation half-life ln(2)/koff)” value stood at 5.2 h, the Ki was determined as 9.3 nM and the koff was 3.89e-05 s⁻¹. Further, the IC50 against hKIF18A (1-374) (setting [3]) stood at 51 nM.
In the case of `CC(C)(C)NS(=O)(=O)c1cccc(C(=O)N2C[C@]3(CC[C@H](C(F)F)CC3)c3cc(NS(C)(=O)=O)ccc32)c1` [Compound 162a], in experiment [1], the “koff (off-rate from binding kinetics assay)” value is 1.53e-05 s⁻¹, the “kon” value was found to be 8060 M⁻¹ s⁻¹, the “disc. t1/2 (dissociation half-life ln(2)/koff)” value came out at 13 h and the Ki amounted to 1.9 nM. The same molecule came in with an IC50 at hKIF18A (1-374) (setting [3]) of 15 nM.
On to `CC(C)(C)NS(=O)(=O)c1cc(C(=O)N2CC3(CCC4(CC4)CC3)c3cc(NS(C)(=O)=O)ccc32)ccc1O` [Compound 298, N-(tert-butyl)-2-hydroxy-5-(5″-(methylsulfonamido)dispiro[cyclopropane-1,1′-cyclohexane-4′,3″-indoline]-1″-carbonyl)benzenesulfonamide], for which, in experiment [1], the “kon” value stood at 19700 M⁻¹ s⁻¹, the “disc. t1/2 (dissociation half-life ln(2)/koff)” value came to 26 h, the Ki worked out at 0.38 nM and the koff is 7.5e-06 s⁻¹. The same molecule yielded an IC50 against hKIF18A (1-374) (setting [3]) of 8.4 nM.
On the same counts, the results for `CS(=O)(=O)Nc1ccc2c(c1)C1(CCC3(CC3)CC1)CN2C(=O)c1cccc(S(=O)(=O)C2CCCC2)c1` [Compound 155, N-(1″-(3-(cyclopentylsulfonyl)benzoyl)dispiro [cyclopropane-1,1′-cyclohexane-4′,3″- indolin]-5″-yl)methanesulfonamide] are 30600 M⁻¹ s⁻¹, 6.5 h, 2 nM, 3.06e-05 s⁻¹ and 7.4 nM.
On the same counts, the results for `CCS(=O)(=O)Nc1ccc2c(c1)C1(CCC3(CC3)CC1)CN2C(=O)c1cc(S(=O)(=O)NC(C)(C)C)cs1` [Compound 269, N-(tert-butyl)-5-(5″- (ethylsulfonamido)dispiro[cyclopropane-1,1′-cyclohexane-4′,3″-indoline]-1″- carbonyl)thiophene-3-sulfonamide] are 5560 M⁻¹ s⁻¹, 8.7 h, 4 nM, 2.22e-05 s⁻¹ and 79 nM.
On the same counts, the results for `CS(=O)(=O)Nc1ccc2c(c1)C1(CCCCC1)CN2C(=O)c1cccc(S(=O)(=O)N2CC3(CCC3)C2)c1` [Compound 129, N-(1′-(3-((2-azaspiro[3.3]heptan-2-yl)sulfonyl)benzoyl)spiro[cyclohexane-1,3′-indolin]-5′-yL)methanesulfonamide] are 12200 M⁻¹ s⁻¹, 2.5 h, 6.3 nM, 7.78e-05 s⁻¹ and 45 nM.
